Data set [1] can be described thus: Cytotoxicity assay in MT-4 cells. In kind it is cell-based. Conditions: human; uninfected MT-4 cells, 5 days incubation, Cell Titer Glo; read-out: MT4 CC50. Put shortly: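 Viability read by Cell Titer Glo luminescence after 5 days at 37 °C. MT-4 cells, not infected, in complete RPMI (10% FBS), received compound dilution series. Base cytotoxicity set with […] puromycin.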

The next data set relates to HIV-1 (IIIB). The experiment in a line: Antiviral assay in MT-4 cells. Type of data set: cell-based. As to conditions: Human immunodeficiency virus 1, MT4, 120 h; HIV-1 IIIB in MT-4 cells, 5 days incubation, Cell Titer Glo; read-out: MT4 EC50. Put shortly: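 Read-out: CellTiter-Glo luminescence after 5 days at 37 °C, reflecting survival of MT-4 cells infected with HIV-1 IIIB (1:250 fresh stock dilution) versus mock-infected. Compounds serially diluted into RPMI with 10% FBS; AZT at 5 μM served as positive control.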

Each structure is given as a SMILES string. Some results are limits rather than exact numbers.

For `CCCCCCCCCCCCOC(=O)Oc1c2n(cc(C(=O)NCc3ccc(F)cc3F)c1=O)[C@@H]1CN(C2=O)[C@@H](C)CC[C@]12CC(OC)=NO2` [Example 142, (3′S,5S,7′R)-10′-((2,4-difluorobenzyl)carbamoyl)-3-methoxy-3′-methyl-1′,11′-dioxo-1′,4′,5′,11′-tetrahydro-3′H,4H,7′H-spiro[isoxazole-5,6′-[2,7]methanopyrido[1,2-a][1,4]diazonin]-12′-yl dodecyl carbonate], in data set [1], the CC50 at 5 days came out at 36400 nM. For the same compound, in the data set with HIV-1 (IIIB), the EC50 was 3.64 nM.
`CCCCCCCCCCCCCCCCOC(=O)Oc1c2n(cc(C(=O)NCc3ccc(F)cc3F)c1=O)[C@@H]1CN(C2=O)[C@@H](C)CC[C@]12CC(C)=NO2` [Example 144, (3′S,5S,7′R)-10′-((2,4-difluorobenzyl)carbamoyl)-3,3′-dimethyl-1′,11′-dioxo-1′,4′,5′,11′-tetrahydro-3′H,4H,7′H-spiro[isoxazole-5,6′-[2,7]methanopyrido[1,2-a][1,4]diazonin]-12′-yl hexadecyl carbonate]: in data set [1], the CC50 at 5 days was at least 50000 nM. The EC50 with HIV-1 (IIIB) worked out at 6.9 nM.
For `CCCCCCCCCCCCCCCCOC(=O)Oc1c2n(cc(C(=O)NCc3ccc(F)cc3F)c1=O)[C@@H]1CN(C2=O)[C@@H](C)CC[C@]12CC(OC)=NO2` [Example 145, (3′S,5S,7′R)-10′-((2,4-difluorobenzyl)carbamoyl)-3-methoxy-3′-methyl-1′,11′-dioxo-1′,4′,5′,11′-tetrahydro-3′H,4H,7′H-spiro[isoxazole-5,6′-[2,7]methanopyrido[1,2-a][1,4]diazonin]-12′-yl hexadecyl carbonate], in that order: at least 50000 nM and 5.93 nM.
As for `CCCCCCCCCCCCCCCCCCOC(=O)Oc1c2n(cc(C(=O)NCc3ccc(F)cc3F)c1=O)[C@@H]1CN(C2=O)[C@@H](C)CC[C@]12CC(C)=NO2` [Example 146, (3′S,5S,7′R)-10′-((2,4-difluorobenzyl)carbamoyl)-3,3′-dimethyl-1′,11′-dioxo-1′,4′,5′,11′-tetrahydro-3′H,4H,7′H-spiro[isoxazole-5,6′-[2,7]methanopyrido[1,2-a][1,4]diazonin]-12′-yl octadecyl carbonate], the CC50 at 5 days in data set [1] was at least 50000 nM. Further, in the data set with HIV-1 (IIIB), the EC50 came to 7.56 nM.
Consider `CCCCCCCCCCCCCCCCCCOC(=O)Oc1c2n(cc(C(=O)NCc3ccc(F)cc3F)c1=O)[C@@H]1CN(C2=O)[C@@H](C)CC[C@]12CC(OC)=NO2` [Example 147, (3′S,5S,7′R)-10′-((2,4-difluorobenzyl)carbamoyl)-3-methoxy-3′-methyl-1′,11′-dioxo-1′,4′,5′,11′-tetrahydro-3′H,4H,7′H-spiro[isoxazole-5,6′-[2,7]methanopyrido[1,2-a][1,4]diazonin]-12′-yl octadecyl carbonate], for which the CC50 at 5 days in data set [1] was at least 50000 nM. In the data set on HIV-1 (IIIB), the EC50 was determined as 7.16 nM.
Take `CC1=NO[C@@]2(CC[C@H](C)N3C[C@H]2n2cc(C(=O)NCc4ccc(F)cc4F)c(=O)c(OC(=O)OCC(C)C)c2C3=O)C1` [Example 148, (3′S,5S,7′R)-10′-((2,4-difluorobenzyl)carbamoyl)-3,3′-dimethyl-1′,11′-dioxo-1′,4′,5′,11′-tetrahydro-3′H,4H,7′H-spiro[isoxazole-5,6′-[2,7]methanopyrido[1,2-a][1,4]diazonin]-12′-yl isobutyl carbonate]: the half-maximal cytotoxic concentration (CC50) at 5 days in data set [1] stood at 16100 nM. Moreover, the EC50 with HIV-1 (IIIB) turned out to be 1.85 nM.
For `COC1=NO[C@@]2(CC[C@H](C)N3C[C@H]2n2cc(C(=O)NCc4ccc(F)cc4F)c(=O)c(OC(=O)OCC(C)C)c2C3=O)C1` [Example 149, (3′S,5S,7′R)-10′-((2,4-difluorobenzyl)carbamoyl)-3-methoxy-3′-methyl-1′,11′-dioxo-1′,4′,5′,11′-tetrahydro-3′H,4H,7′H-spiro[isoxazole-5,6′-[2,7]methanopyrido[1,2-a][1,4]diazonin]-12′-yl isobutyl carbonate], in that order: 15900 nM and 2.17 nM.
Turning to `CC1=NO[C@@]2(CC[C@H](C)N3C[C@H]2n2cc(C(=O)NCc4ccc(F)cc4F)c(=O)c(OC(=O)OCCC(C)C)c2C3=O)C1` [Example 150, (3′S,5S,7′R)-10′-((2,4-difluorobenzyl)carbamoyl)-3,3′-dimethyl-1′,11′-dioxo-1′,4′,5′,11′-tetrahydro-3′H,4H,7′H-spiro[isoxazole-5,6′-[2,7]methanopyrido[1,2-a][1,4]diazonin]-12′-yl isopentyl carbonate], in data set [1], the CC50 at 5 days turned out to be 16000 nM. The EC50 with HIV-1 (IIIB) came out at 0.153 nM.
In the case of `COC1=NO[C@@]2(CC[C@H](C)N3C[C@H]2n2cc(C(=O)NCc4ccc(F)cc4F)c(=O)c(OC(=O)OCCC(C)C)c2C3=O)C1` [Example 151, (3′S,5S,7′R)-10′-((2,4-difluorobenzyl)carbamoyl)-3-methoxy-3′-methyl-1′,11′-dioxo-1′,4′,5′,11′-tetrahydro-3′H,4H,7′H-spiro[isoxazole-5,6′-[2,7]methanopyrido[1,2-a][1,4]diazonin]-12′-yl isopentyl carbonate], the CC50 at 5 days in data set [1] amounted to 18500 nM. Also, in the data set with HIV-1 (IIIB), the EC50 is 0.17 nM.
On to `CC1=NO[C@@]2(CC[C@H](C)N3C[C@H]2n2cc(C(=O)NCc4ccc(F)cc4F)c(=O)c(OC(=O)OCCCC(C)C)c2C3=O)C1` [Example 152, (3′S,5S,7′R)-10′-((2,4-difluorobenzyl)carbamoyl)-3,3′-dimethyl-1′,11′-dioxo-1′,4′,5′,11′-tetrahydro-3′H,4H,7′H-spiro[isoxazole-5,6′-[2,7]methanopyrido[1,2-a][1,4]diazonin]-12′-yl (4-methylpentyl) carbonate], for which the CC50 at 5 days in data set [1] turned out to be 14900 nM. Also, the EC50 with HIV-1 (IIIB) was 0.573 nM.
`COC1=NO[C@@]2(CC[C@H](C)N3C[C@H]2n2cc(C(=O)NCc4ccc(F)cc4F)c(=O)c(OC(=O)OCCCC(C)C)c2C3=O)C1` [Example 153, (3′S,5S,7′R)-10′-((2,4-difluorobenzyl)carbamoyl)-3-methoxy-3′-methyl-1′,11′-dioxo-1′,4′,5′,11′-tetrahydro-3′H,4H,7′H-spiro[isoxazole-5,6′-[2,7]methanopyrido[1,2-a][1,4]diazonin]-12′-yl (4-methylpentyl) carbonate]: the CC50 at 5 days in data set [1] is 23600 nM. For the same compound, in the data set with HIV-1 (IIIB), the EC50 came out at 0.648 nM.
Consider `CC1=NO[C@@]2(CC[C@H](C)N3C[C@H]2n2cc(C(=O)NCc4ccc(F)cc4F)c(=O)c(OC(=O)OCCCCC(C)C)c2C3=O)C1` [Example 154, (3′S,5S,7′R)-10′-((2,4-difluorobenzyl)carbamoyl)-3,3′-dimethyl-1′,11′-dioxo-1′,4′,5′,11′-tetrahydro-3′H,4H,7′H-spiro[isoxazole-5,6′-[2,7]methanopyrido[1,2-a][1,4]diazonin]-12′-yl (5-methylhexyl) carbonate], for which the cytotoxic concentration (CC50) at 5 days in data set [1] amounted to 17200 nM. The EC50 with HIV-1 (IIIB) is 1.72 nM.
For `COC1=NO[C@@]2(CC[C@H](C)N3C[C@H]2n2cc(C(=O)NCc4ccc(F)cc4F)c(=O)c(OC(=O)OCCCCC(C)C)c2C3=O)C1` [Example 155, (3′S,5S,7′R)-10′-((2,4-difluorobenzyl)carbamoyl)-3-methoxy-3′-methyl-1′,11′-dioxo-1′,4′,5′,11′-tetrahydro-3′H,4H,7′H-spiro[isoxazole-5,6′-[2,7]methanopyrido[1,2-a][1,4]diazonin]-12′-yl (5-methylhexyl) carbonate], in that order: 17500 nM and 1.19 nM.
In the case of `CC1=NO[C@@]2(CC[C@H](C)N3C[C@H]2n2cc(C(=O)NCc4ccc(F)cc4F)c(=O)c(OC(=O)OCCCCCC(C)C)c2C3=O)C1` [Example 156, (3′S,5S,7′R)-10′-((2,4-difluorobenzyl)carbamoyl)-3,3′-dimethyl-1′,11′-dioxo-1′,4′,5′,11′-tetrahydro-3′H,4H,7′H-spiro[isoxazole-5,6′-[2,7]methanopyrido[1,2-a][1,4]diazonin]-12′-yl (6-methylheptyl) carbonate], the cytotoxic concentration (CC50) at 5 days in data set [1] is 14700 nM. The EC50 in the data set with HIV-1 (IIIB) amounted to 2 nM.
For `COC1=NO[C@@]2(CC[C@H](C)N3C[C@H]2n2cc(C(=O)NCc4ccc(F)cc4F)c(=O)c(OC(=O)OCCCCCC(C)C)c2C3=O)C1` [Example 157, (3′S,5S,7′R)-10′-((2,4-difluorobenzyl)carbamoyl)-3-methoxy-3′-methyl-1′,11′-dioxo-1′,4′,5′,11′-tetrahydro-3′H,4H,7′H-spiro[isoxazole-5,6′-[2,7]methanopyrido[1,2-a][1,4]diazonin]-12′-yl (6-methylheptyl) carbonate], in that order: 15400 nM and 2.33 nM.
For `CC1=NO[C@@]2(CC[C@H](C)N3C[C@H]2n2cc(C(=O)NCc4ccc(F)cc4F)c(=O)c(OC(=O)OCCCCCCCC(C)C)c2C3=O)C1` [Example 160, (3′S,5S,7′R)-10′-((2,4-difluorobenzyl)carbamoyl)-3,3′-dimethyl-1′,11′-dioxo-1′,4′,5′,11′-tetrahydro-3′H,4H,7′H-spiro[isoxazole-5,6′-[2,7]methanopyrido[1,2-a][1,4]diazonin]-12′-yl (8-methylnonyl) carbonate], in that order: 12600 nM and 1.64 nM.
For `COC1=NO[C@@]2(CC[C@H](C)N3C[C@H]2n2cc(C(=O)NCc4ccc(F)cc4F)c(=O)c(OC(=O)OCCCCCCCC(C)C)c2C3=O)C1` [Example 161, (3′S,5S,7′R)-10′-((2,4-difluorobenzyl)carbamoyl)-3-methoxy-3′-methyl-1′,11′-dioxo-1′,4′,5′,11′-tetrahydro-3′H,4H,7′H-spiro[isoxazole-5,6′-[2,7]methanopyrido[1,2-a][1,4]diazonin]-12′-yl (8-methylnonyl) carbonate], in data set [1], the CC50 at 5 days was 40600 nM. Further, the EC50 in the data set with HIV-1 (IIIB) stood at 1.59 nM.
